Measurements reported in the supplement of paper PMC10307832.

How the values were obtained:
Experiment in all cases: relative viability (nuclei count vs DMSO), 5 days (fraction); higher = more cells survive
BAY61-3606 + AZD7762 = compound: COC1=C(C=C(C=C1)C2=CC3=NC=CN3C(=N2)NC4=C(C=CC=N4)C(=O)N)OC [BAY61-3606] + NC(=O)Nc1cc(-c2cccc(F)c2)sc1C(=O)N[C@H]1CCCNC1 [AZD7762] (partner 0.2 µM)
Procedure, shortened: (§1)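 The day after seeding in 1536-well plates, lung cancer cell lines were treated by pin tool with a single drug, or with a fixed anchor-drug dose together with five library-drug doses (not always all listed) in √10 steps. After 5 days, a combined fix-and-stain solution (final 0.05% Triton X-100, 1% formaldehyde, 1 ug/ml Hoechst) was added. Nuclei counted on 4× images gave relative viability as treated counts over vehicle counts, reported as the median of duplicate plates.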

BAY61-3606 + Tozasertib = compound: COC1=C(C=C(C=C1)C2=CC3=NC=CN3C(=N2)NC4=C(C=CC=N4)C(=O)N)OC [BAY61-3606] + Cc1cc(Nc2cc(N3CCN(C)CC3)nc(Sc3ccc(NC(=O)C4CC4)cc3)n2)n[nH]1 [Tozasertib] (partner 0.1 µM)
Procedure, shortened: as §1

BAY61-3606 + Pemetrexed = compound: COC1=C(C=C(C=C1)C2=CC3=NC=CN3C(=N2)NC4=C(C=CC=N4)C(=O)N)OC [BAY61-3606] + Nc1nc2[nH]cc(CCc3ccc(C(=O)N[C@@H](CCC(=O)O)C(=O)O)cc3)c2c(=O)[nH]1 [Pemetrexed] (partner 0.2 µM)
Procedure, shortened: as §1

Doxorubicin + Phenformin = compound: COc1cccc2c1C(=O)c1c(O)c3c(c(O)c1C2=O)C[C@@](O)(C(=O)CO)C[C@@H]3O[C@H]1C[C@H](N)[C@H](O)[C@H](C)O1 [Doxorubicin] + N=C(N)NC(=N)NCCc1ccccc1 [Phenformin] (partner 250 µM)
Procedure, shortened: as §1

Cell Line	relative viability (BAY61-3606 + AZD7762; first compound 0.02 µM)	relative viability (BAY61-3606 + AZD7762; first compound 0.06325 µM)	relative viability (BAY61-3606 + AZD7762; first compound 0.2 µM)	relative viability (BAY61-3606 + AZD7762; first compound 0.6325 µM)	relative viability (BAY61-3606 + AZD7762; first compound 2 µM)	relative viability (BAY61-3606 + Tozasertib; first compound 0.02 µM)	relative viability (BAY61-3606 + Tozasertib; first compound 0.06325 µM)	relative viability (BAY61-3606 + Tozasertib; first compound 0.2 µM)	relative viability (BAY61-3606 + Tozasertib; first compound 0.6325 µM)	relative viability (BAY61-3606 + Tozasertib; first compound 2 µM)	relative viability (BAY61-3606 + Pemetrexed; first compound 0.02 µM)	relative viability (BAY61-3606 + Pemetrexed; first compound 0.06325 µM)	relative viability (BAY61-3606 + Pemetrexed; first compound 0.2 µM)	relative viability (BAY61-3606 + Pemetrexed; first compound 0.6325 µM)	relative viability (BAY61-3606 + Pemetrexed; first compound 2 µM)	relative viability (Doxorubicin + Phenformin; first compound 0.003162 µM)	relative viability (Doxorubicin + Phenformin; first compound 0.01 µM)	relative viability (Doxorubicin + Phenformin; first compound 0.03162 µM)	relative viability (Doxorubicin + Phenformin; first compound 0.1 µM)	relative viability (Doxorubicin + Phenformin; first compound 0.001 µM)
HCC-366	0.286	0.222	0.282	0.265	0.283	0.115	0.0576	0.0642	0.0443	0.0501	0.187	0.174	0.181	0.164	0.165	0.614	0.601	0.48	0.395	–
HCC-827	0.219	0.176	0.211	0.215	0.207	0.412	0.415	0.373	0.387	0.38	0.274	0.295	0.274	0.254	0.262	0.409	0.401	0.401	0.408	0.429
HOP-62	–	0.643	0.517	0.748	0.531	0.323	0.224	0.297	0.286	0.144	–	0.354	0.323	0.332	0.249	0.625	0.631	0.542	0.484	0.654
LC-2-ad	0.876	0.887	0.778	0.857	0.849	0.404	0.308	0.387	0.44	0.345	0.289	0.267	0.261	0.289	0.267	0.516	0.562	0.289	0.304	0.498
LCLC-97TM1	0.204	0.326	0.228	0.393	0.345	0.17	0.184	0.233	0.147	0.0986	0.188	0.165	0.195	0.145	0.166	0.481	0.402	0.467	0.392	0.449
LCLC-103H	0.762	0.704	0.836	0.758	0.769	0.459	0.335	0.484	0.352	0.213	0.437	0.441	0.457	0.462	0.446	0.37	0.345	0.293	0.354	0.341
NCI-H520	–	–	–	–	–	0.48	0.432	0.461	0.452	0.356	0.75	0.782	0.768	0.684	0.467	0.531	0.611	0.465	0.347	0.626
NCI-H661	–	–	–	–	–	0.357	0.358	0.37	0.378	0.362	0.963	1.01	0.84	0.931	0.703	0.284	0.265	0.244	0.238	0.27
NCI-H727	0.747	0.509	0.577	0.75	0.734	0.799	0.593	0.521	0.656	0.442	–	–	–	–	–	0.472	0.696	0.539	0.404	0.499
